Measurements: patent US20240053330A1, “MODULAR KINETICALLY-CONTROLLED FUNCTIONAL RNA CONSTRUCTS AND RELATED COMPOSITIONS, SYSTEMS, AND METHODS” (UNIVERSITY OF WASHINGTON, priority 2021, published 2024)

Test system: J306 target with alternative PAM sequences
Assay: CRISPRa at alternative PAM sites of the J3-J23117-mRFP1 reporter
Assay type: cell-based, E. coli
Source text: FIGS. 31A and 31B illustrate that dxCas9(3.7) expands the range of targetable scRNA target sites by recognizing alternative PAMs. […] Reporter plasmids were constructed by replacing the AGG PAM site for the J306 target in the J3-J23117-mRFP1 reporter with alternative PAM sequences that have been previously reported to be recognized by dxCas9(3.7) in human cells (Hu, J. H. et al. Evolved Cas9 variants with broad PAM compatibility and high DNA specificity. Nature 556, 57-63 (2018), incorporated herein by reference in its entirety). The (−) sign indicates a control expressing the original reporter with the AGG PAM and the CRISPRa components with Sp-dCas9, the activation domain and no scRNA.
Considering there is a limited number of genes with an appropriate NGG PAM site at precisely the optimal position upstream of the promoter, it was attempted to expand the scope of targetable PAM sites for CRISPRa. A recently characterized dCas9 variant, dxCas9(3.7), that has improved activity at a variety of non-NGG PAM sites including NGN, GAA, GAT, and CAA6 was used. […] PAM sites than NGG PAM sites (not shown), Accounting for the fact that dCas9 has some activity at non-NGG sites6 (FIG. 31), there are still on average ˜2.2-fold more dxCas9(3.7)-compatible PAM sites than dCas9-compatible PAM sites (not shown). […]

Substance: Sp-dCas9: S. pyogenes dCas9
- CRISPRa activity (in words) (non-NGG PAM sites AGA, CGA, GGA, GGC, GGT, TGA): moderate CRISPRa activity
- activation of AGT PAM site shifted into the peak activation range (in words) (reporter with five bases inserted): ineffective
